Measurements taken from US12662489B2 (Sitryx Therapeutics Limited, priority 2023, dated 2026).

Tests used:
[1] = molecular target: T1, MTHFD1 recombinant human enzyme (Homo sapiens, UniProt P11586); assay: MTHFD1 inhibition assay (NAD(P)H-Glo luminescence); conditions: MTHFD1 IC50, recombinant human enzyme 200 nM, NADP, band
T1 sequence (P11586 2-291 limits assumed): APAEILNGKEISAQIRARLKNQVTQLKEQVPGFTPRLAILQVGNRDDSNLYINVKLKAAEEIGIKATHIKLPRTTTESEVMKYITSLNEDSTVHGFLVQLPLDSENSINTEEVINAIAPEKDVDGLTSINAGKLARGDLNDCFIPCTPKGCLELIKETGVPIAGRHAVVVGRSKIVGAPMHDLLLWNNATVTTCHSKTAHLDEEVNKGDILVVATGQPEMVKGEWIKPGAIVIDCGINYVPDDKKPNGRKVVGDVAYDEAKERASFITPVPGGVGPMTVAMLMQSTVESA

[2] = molecular target: T2, MTHFD2 recombinant human enzyme (Homo sapiens, UniProt P13995); assay: MTHFD2 inhibition assay (NAD(P)H-Glo luminescence); conditions: for MTHFD1/MTHFD2 IC50 ratio: selectivity of MTHFD2 inhibition over MTHFD1, band
T2 sequence (P13995 36-350): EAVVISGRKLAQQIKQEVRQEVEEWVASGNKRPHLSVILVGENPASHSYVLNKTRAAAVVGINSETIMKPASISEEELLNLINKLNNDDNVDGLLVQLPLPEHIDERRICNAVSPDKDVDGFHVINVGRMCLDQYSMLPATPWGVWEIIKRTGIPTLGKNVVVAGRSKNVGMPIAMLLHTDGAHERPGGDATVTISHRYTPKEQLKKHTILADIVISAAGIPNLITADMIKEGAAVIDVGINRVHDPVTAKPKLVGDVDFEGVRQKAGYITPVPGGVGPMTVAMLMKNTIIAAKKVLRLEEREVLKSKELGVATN

human CD4+ T cells = assay: Human CD4+ T-cell proliferation assay (CFSE, CD3/28 beads); conditions: read-out: Proliferation IC50
Procedure: Cells were incubated at room temperature for 8 minutes in a rotator in the dark. 13 mL cRPMI was added to each tube and cells were centrifuged at 500×g for 4 minutes at room temperature before pellets were resuspended in 10 mL cRPMI. Cells were counted using the Auto2000 Cellometer and AO/PI viability stain and concentration adjusted to 0.6×10^6 cells/mL in cRPMI. […] Control wells were included for flow cytometry and edge wells were filled with 200 μL 1×dPBS. Cells were incubated at 37° C., 5% CO2 for 2 days before compound treatment. […] Cells were incubated at 37° C., 5% CO2 for a further 2 days prior to flow staining and supernatant harvest.
On the final day plates were centrifuged at 500×g for 4 minutes at room temperature. 125 μL of supernatants were transferred to a V bottom 96 well polystyrene plate and stored at −80° C. Plates were gently vortexed to disrupt the cell pellets before 125 μL 1×PBS was added to each well. Plates were centrifuged at 500×g for 4 minutes at room temperature and supernatants removed from the plates by aspirating. Plates were gently vortexed and 30 μL of live/dead stain (Invitrogen, L34975) in 1×dPBS was added and incubated for 15 minutes in the dark at 4° C. […] 100 μL of flow cytometry buffer was added and plates were centrifuged at 500×g for 4 minutes before supernatants were aspirated from the plates. Wells were resuspended in 200 μL flow cytometry buffer and plates stored at 4° C. before being run on the flow cytometer.
Data was analysed using FlowJo and the compensation matrix applied to all samples. The gates were set using unstained and unstimulated samples.

| SMILES | IC50 [1] | IC50 [2] | MTHFD1/MTHFD2 IC50 ratio [2] | IC50 (human CD4+ T cells) |
| --- | --- | --- | --- | --- |
| [2H]C([2H])([2H])Oc1cc(C(=O)N2CCc3c(c(=O)oc4c(C)c(N5CCN(C)[C@@H](COC)C5)cc(C)c34)C2)c(F)cc1C(=O)NS(=O)(=O)N1CCCC1 [Example 225, (R)-5-fluoro-2-(methoxy-d3)-4-(8-(3-(methoxymethyl)-4-methylpiperazin-1-yl)-7,10-dimethyl-5-oxo-1,3,4,5-tetrahydro-2H-chromeno[3,4-c]pyridine-3-carbonyl)-N-(pyrrolidin-1-ylsulfonyl)benzamide] | 0.1 to 1 µM | 0.001 to 0.01 µM | J (>30) | 0.03 to 0.1 µM |
| COC[C@H]1CN(c2cc(C)c3c4c(c(=O)oc3c2C)CN(C(=O)c2ccc(C(=O)NS(=O)(=O)N3C5CCC3CC5)c(OC)c2)CC4)CCN1C [Example 226, (R)-N-((7-azabicyclo[2.2.1]heptan-7-yl)sulfonyl)-2-methoxy-4-(8-(3-(methoxymethyl)-4-methylpiperazin-1-yl)-7,10-dimethyl-5-oxo-1,3,4,5-tetrahydro-2H-chromeno[3,4-c]pyridine-3-carbonyl)benzamide] | 0.1 to 1 µM | 0.01 to 0.1 µM | J (>30) | 0.03 to 0.1 µM |
| CCOc1c(C(=O)NS(=O)(=O)N2C3CCC2CC3)ccc(C(=O)N2CCc3c(c(=O)oc4c(C)c(N5CCN(C)[C@@H](COC)C5)cc(C)c34)C2)c1F [Example 228] | 0.1 to 1 µM | 0.01 to 0.1 µM | G (^ 3 to 9.0) | 0.001 to 0.01 µM |
| COC[C@H]1CN(c2cc(C)c3c4c(c(=O)oc3c2C)CN(C(=O)c2ccc(C(=O)NS(=O)(=O)N3C5CCC3CC5)c(C)c2F)CC4)CCN1C [Example 241] | 0.1 to 1 µM | 0.01 to 0.1 µM | H (>9.0 to 30) | 0.1 to 1 µM |
| CCOc1cc(C(=O)N2CCc3c(c(=O)oc4c(C)c(N5CCN(C)[C@@H](COC)C5)cc(CC)c34)C2)c(F)cc1C(=O)NS(=O)(=O)N1CCCC1 [Example 244, (R)-2-ethoxy-4-(10-ethyl-8-(3-(methoxymethyl)-4-methylpiperazin-1-yl)-7-methyl-5-oxo-1,3,4,5-tetrahydro-2H-chromeno[3,4-c]pyridine-3-carbonyl)-5-fluoro-N-(pyrrolidin-1-ylsulfonyl)benzamide] | 0.1 to 1 µM | 0.01 to 0.1 µM | J (>30) | 0.1 to 1 µM |
| CCc1cc(N2CCN(C)[C@@H](COC)C2)c(C)c2oc(=O)c3c(c12)CCN(C(=O)c1cc(N(C)C)c(C(=O)NS(=O)(=O)N2CCCC2)cc1F)C3 [Example 245, (R)-2-(dimethylamino)-4-(10-ethyl-8-(3-(methoxymethyl)-4-methylpiperazin-1-yl)-7-methyl-5-oxo-1,3,4,5-tetrahydro-2H-chromeno[3,4-c]pyridine-3-carbonyl)-5-fluoro-N-(pyrrolidin-1-ylsulfonyl)benzamide] | 1 to 5 µM | 0.001 to 0.01 µM | J (>30) | 0.03 to 0.1 µM |
| [2H]C([2H])([2H])Oc1cc(C(=O)N2CCc3c(c(=O)oc4c(C)c(N5CCN(C)[C@@H](COC)C5)cc(Cl)c34)C2)c(F)cc1C(=O)NS(=O)(=O)N1CCCC1 [Example 246, (R)-4-(10-chloro-8-(3-(methoxymethyl)-4-methylpiperazin-1-yl)-7-methyl-5-oxo-1,3,4,5-tetrahydro-2H-chromeno[3,4-c]pyridine-3-carbonyl)-5-fluoro-2-(methoxy-d3)-N-(pyrrolidin-1-ylsulfonyl)benzamide] | 0.1 to 1 µM | 0.001 to 0.01 µM | J (>30) | 0.1 to 1 µM |
| COC[C@H]1CN(c2cc(Cl)c3c4c(c(=O)oc3c2C)CN(C(=O)c2cc(N(C)C)c(C(=O)NS(=O)(=O)N3CCCC3)cc2F)CC4)CCN1C [Example 247, (R)-4-(10-chloro-8-(3-(methoxymethyl)-4-methylpiperazin-1-yl)-7-methyl-5-oxo-1,3,4,5-tetrahydro-2H-chromeno[3,4-c]pyridine-3-carbonyl)-2-(dimethylamino)-5-fluoro-N-(pyrrolidin-1-ylsulfonyl)benzamide] | 0.1 to 1 µM | 0.001 to 0.01 µM | – | 0.01 to 0.03 µM |
| COC[C@H]1CN(c2cc(C)c3c4c(c(=O)oc3c2C)CN(C(=O)c2cc(OC)c(C(=O)NS(=O)(=O)N3C5CCC3CC5)cc2F)CC4)CCN1C [Example 248, (R)-N-((7-azabicyclo[2.2.1]heptan-7-yl)sulfonyl)-5-fluoro-2-methoxy-4-(8-(3-(methoxymethyl)-4-methylpiperazin-1-yl)-7,10-dimethyl-5-oxo-1,3,4,5-tetrahydro-2H-chromeno[3,4-c]pyridine-3-carbonyl)benzamide] | 0.1 to 1 µM | 0.001 to 0.01 µM | J (>30) | 0.03 to 0.1 µM |
| COC[C@H]1CN(c2cc(C)c3c4c(c(=O)oc3c2C)CN(C(=O)c2cc(OC)c(C(=O)NS(=O)(=O)N3CC5CC5C3)cc2F)CC4)CCN1C (stereo partly drawn) [Example 249, N-((3-azabicyclo[3.1.0]hexan-3-yl)sulfonyl)-5-fluoro-2-methoxy-4-(8-((R)-3-(methoxymethyl)-4-methylpiperazin-1-yl)-7,10-dimethyl-5-oxo-1,3,4,5-tetrahydro-2H-chromeno[3,4-c]pyridine-3-carbonyl)benzamide] | 0.1 to 1 µM | 0.001 to 0.01 µM | J (>30) | 0.03 to 0.1 µM |
| [2H]C([2H])([2H])Oc1cc(C(=O)N2CCc3c(c(=O)oc4c(C)c(N5CCN(C)[C@@H](COC)C5)cc(C)c34)C2)c(F)cc1C(=O)NS(=O)(=O)N1C2CCC1CC2 [Example 250, (R)-N-((7-azabicyclo[2.2.1]heptan-7-yl)sulfonyl)-5-fluoro-2-(methoxy-d3)-4-(8-(3-(methoxymethyl)-4-methylpiperazin-1-yl)-7,10-dimethyl-5-oxo-1,3,4,5-tetrahydro-2H-chromeno[3,4-c]pyridine-3-carbonyl)benzamide] | 1 to 5 µM | 0.001 to 0.01 µM | J (>30) | 0.03 to 0.1 µM |
| [2H]C([2H])([2H])Oc1cc(C(=O)N2CCc3c(c(=O)oc4c(C)c(N5CCN(C)[C@@H](COC)C5)cc(C)c34)C2)c(F)cc1C(=O)NS(=O)(=O)N1CC2CC2C1 (stereo partly drawn) [Example 251, N-((3-azabicyclo[3.1.0]hexan-3-yl)sulfonyl)-5-fluoro-2-(methoxy-d3)-4-(8-((R)-3-(methoxymethyl)-4-methylpiperazin-1-yl)-7,10-dimethyl-5-oxo-1,3,4,5-tetrahydro-2H-chromeno[3,4-c]pyridine-3-carbonyl)benzamide] | 0.1 to 1 µM | 0.001 to 0.01 µM | J (>30) | 0.03 to 0.1 µM |
| COC[C@H]1CN(c2cc(C)c3c4c(c(=O)oc3c2C)CN(C(=O)c2cc(N(C)C)c(C(=O)NS(=O)(=O)N3CC5(CCC5)C3)cc2F)CC4)CCN1C [Example 253, (R)-N-((2-azaspiro[3.3]heptan-2-yl)sulfonyl)-2-(dimethylamino)-5-fluoro-4-(8-(3-(methoxymethyl)-4-methylpiperazin-1-yl)-7,10-dimethyl-5-oxo-1,3,4,5-tetrahydro-2H-chromeno[3,4-c]pyridine-3-carbonyl)benzamide] | 0.1 to 1 µM | 0.001 to 0.01 µM | J (>30) | 0.01 to 0.03 µM |
